Experimental findings from patent US9861613B2, “GPR142 agonist compounds” (Eli Lilly and Company, priority 2014, dated 2018) are described below.

For orientation: EC50 means the concentration needed to bring the measured effect to its halfway point.

One assay deals with T1, GPR142 (Mus musculus, UniProt Q7TQN9).
T1 construct: from tissue; host or cells: whole animal, male C57BL/6 mice
T1 sequence (Q7TQN9 1-365): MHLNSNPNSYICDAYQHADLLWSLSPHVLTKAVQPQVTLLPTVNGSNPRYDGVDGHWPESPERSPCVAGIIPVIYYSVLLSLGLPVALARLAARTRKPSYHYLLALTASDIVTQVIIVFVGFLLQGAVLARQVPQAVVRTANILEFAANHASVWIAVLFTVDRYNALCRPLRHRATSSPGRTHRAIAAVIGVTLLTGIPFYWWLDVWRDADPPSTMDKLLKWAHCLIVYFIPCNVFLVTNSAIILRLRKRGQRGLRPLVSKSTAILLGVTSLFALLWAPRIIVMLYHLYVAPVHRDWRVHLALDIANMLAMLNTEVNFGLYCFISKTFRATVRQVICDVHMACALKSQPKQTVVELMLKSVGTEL
As to the kind of experiment: Intraperitoneal glucose tolerance test (IPGTT). It counts as in vivo. The settings on record: lean C57BL/6 mice, oral dosing 30 min before glucose challenge. How it is done: IPGTT assay is used to examine the ability of exemplified compounds to activate GPR142 in vivo resulting in anti-diabetic efficacy, i.e. reduction in plasma glucose levels. Male C57BL/6 mice (8-10 weeks of age) are fed normal rodent chow diet and water ad libitum. On the night before the study, animals are fasted overnight in clean cages. On the morning of the study, animals are dosed orally with vehicle or compound at the indicated doses 30 minutes prior to the glucose challenge (2 g/kg) by intraperitoneal injection. Blood glucose levels are determined from tail bleeds taken immediately prior to compound dosing (−30 min) and 0, 15, 30, and 60 min after glucose challenge using handheld glucometers. Plasma is isolated from tail bleeds taken at 7 minutes after glucose challenge and used to determine insulin levels by the Rat/Mouse Insulin Elisa kit (Millipore) or MA6000 Mouse/Rat Insulin Kit (MSD). The blood glucose profile from t=0 to t=60 min is used to calculate an area under the curve (AUC) for each treatment. Percent lowering in glucose AUC is calculated for each treatment group with respect to the AUC of vehicle group. Compounds with a reduction in glucose AUC (P<0.05) is considered positive in the assay.

For a further assay, the target named is T2, mouse GPR142 (Mus musculus, UniProt Q7TQN9).
T2 construct: expressed in transfected cells; host or cells: HEK293 (G418-selected)
T2 sequence (Q7TQN9 1-365): T1 sequence (Q7TQN9 1-365)
As to the kind of experiment: GPR142 agonist effect as measured by IP-1 assay (HTRF), mouse GPR142. In kind it is cell-based. The conditions noted are these: HEK293 cells expressing mouse GPR142, IP-1; Mean±SEM, n=5; read-out: EC50 against mouse GPR142 receptor. On the procedure: (§1) The purpose of this assay is to detect GPR142 agonist effect.
(§2) HEK293 cells expressing human GPR142 or mouse GPR142 are maintained in Dulbecco's modified Eagle's medium supplemented with 10% FBS and 800 μg/ml G418 (Geneticin®) at 37° C. and 5% CO2. The cells are plated in 384 well plates at 5000 cells per well and allowed 18 hours for attachment. After addition of compounds at varying concentrations ranging from 30 μM to 1 nM, cells are incubated for 1 hour. IP-1 measurements are performed using an IP-One HTRF® assay kit (Cisbio) according to manufacturer's protocol using assay buffer containing 1×HBSS (+Ca, +Mg), 0.1% BSA, 50 mM LiCl and 20 mM HEPES, pH 7.2. The reaction is stopped by addition of IP1-d2 (IP-1 coupled to an organic HTRF acceptor) followed by cryptate solution (http://www.htrf.com/usa/htrf-chemistry) and the plates are incubated at 25° C. for 1 hour. Fluorescence is read in an Envision instrument at 665 nm and 620 nm wavelength. The ratio of 665 nm/620 nm is calculated and converted to IP-1 levels using an IP-1 standard curve. The data is fit to a 4 parameter-fit logistics to determine EC50 values.
(In general: TR-FRET usually uses a lanthanide donor and a delayed reading to cut background.)

A further assay concerns the target T3, human GPR142 (Homo sapiens, UniProt Q7Z601).
T3 construct: expressed in transfected cells; host or cells: HEK293 (G418-selected)
T3 sequence (Q7Z601 1-462): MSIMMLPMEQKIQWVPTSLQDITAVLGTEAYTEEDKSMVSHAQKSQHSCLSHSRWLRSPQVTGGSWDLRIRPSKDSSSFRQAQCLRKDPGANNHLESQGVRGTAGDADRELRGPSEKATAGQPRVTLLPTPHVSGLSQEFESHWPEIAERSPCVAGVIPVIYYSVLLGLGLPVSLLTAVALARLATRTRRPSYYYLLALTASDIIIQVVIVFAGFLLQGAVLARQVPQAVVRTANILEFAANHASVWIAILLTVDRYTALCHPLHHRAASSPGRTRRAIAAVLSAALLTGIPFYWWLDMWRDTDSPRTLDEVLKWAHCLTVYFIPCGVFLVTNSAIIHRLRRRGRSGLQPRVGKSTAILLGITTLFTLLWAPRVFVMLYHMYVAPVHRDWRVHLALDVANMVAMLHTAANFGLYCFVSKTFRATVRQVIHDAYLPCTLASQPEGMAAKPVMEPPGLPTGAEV
As to the kind of experiment: GPR142 agonist effect as measured by IP-1 assay (HTRF), human GPR142. In kind it is cell-based. The settings on record: HEK293 cells expressing human GPR142, IP-1, Mean±SEM, n=9. How it is done:
as §1, §2

As for `Cc1ncn(C)c1NC(=O)[C@@H]1CCC[C@H](N(C)C(=O)c2cccc(C(F)(F)F)c2)C1` (single isomer, unassigned; isomer 1) [Example 1, Cis-(chiral)-N-[3-[(3,5-Dimethylimidazol-4-yl)carbamoyl]cyclohexyl]-N-methyl-3-(trifluoromethyl)benzamide, isomer 1], the “ED50 in IPGTT” value on GPR142 is 4.2 mpk. Further, the EC50 at mouse GPR142 was 0.00546 µM; on human GPR142 (read-out: EC50 against human GPR142 receptor) it was 0.0526 µM. Besides, at human GPR142, the “efficacy against human GPR142 receptor” value is 105%.
